# Assay: UV/VIS-near-IR absorption of the dyes
# Assay type: physicochemical
# Settings: for ε (CH2Cl2): molar extinction coefficient in CH2Cl2
# Experimental: Synthetic Methods. All reactions were performed open to air unless otherwise noted. Concentration in vacuo was performed on a rotary evaporator. NMR spectra were recorded at 300 or 500 MHz for ^1H and at 75.5 MHz for ^13C with residual solvent signal as internal standard. UV/VIS-near-IR spectra were recorded in quartz cuvettes with a 1-cm path length. Melting points were determined with a capillary melting point apparatus and are uncorrected. […] Pyranones 16b-16d are known compounds (J. Heterocycl. Chem. 1999, 36, 707-717). The synthesis of thiopyranone 16a and 4-methylpyrylium salt 15c is shown in Scheme 2. 4-Methylpyrylium salts 15a, 15d, and 15e have been reported previously in the literature (J. Org. Chem. 1982, 47, 5235-5239; Organometallics 1988, 7, 1131-1147; Dyes Pigm. 2000, 45, 1-7).
# [1] = Table 2, Example 2 dyes, CH2Cl2
SMILES,λmax (CH2Cl2) (absorption maximum in CH2Cl2),ε (CH2Cl2),"Log (ε) (Table 2, Example 2 dyes)",λmax (CH2Cl2) [1]
"C(=Cc1cc(-c2cccs2)[s+]c(-c2cccs2)c1)C=C1C=C(c2cccs2)SC(c2cccs2)=C1.F[P-](F)(F)(F)(F)F [Dye 13, 4-(3-(2,6-dithiophen-2-yl-4H-thiopyran-4-ylidene)prop-1-enyl)-(2,6-dithiophen-2-yl)thiopyrylium hexafluorophosphate]",813 nm,280000 M⁻¹ cm⁻¹,,
"ClC1=C(/C=C/c2cc(-c3cccs3)[s+]c(-c3cccs3)c2)CCC/C1=C\C=C1C=C(c2cccs2)SC(c2cccs2)=C1 [Dye 21, 4-((E)-2-((E)-2-chloro-3-(2-(2,6-di(thiophen-2-yl)-4H-thiopyran-4-ylidene)ethylidene)-cyclohex-1-en-1-yl)vinyl)-2,6-di(thiophen-2-yl)thiopyrylium hexafluorophosphate]",1119 nm,,,
"C1=C(c2cccs2)[Se]c2ccccc2/C1=C/C1=CC(c2cccs2)=[SeH]c2ccccc21 [Dye 17, 2-(thiophene-2-yl)-4-((2-(thiophen-2-yl)-4H selenobenzopyran-4-ylidene)methyl)selenobenzopyrylium hexafluorophosphate]",786 nm,78000 M⁻¹ cm⁻¹,,
"C(=Cc1cc(-c2ccccc2)[s+]c(-c2ccccc2)c1)C=C1C=C(c2cccs2)SC(c2cccs2)=C1.F[P-](F)(F)(F)(F)F [Dye 2b, 4-(3-(2,6-dithiophen-2-yl-4H-thiopyran-4-ylidene)prop-1-enyl)-2,6-diphenylthiopyrylium hexafluorophosphate]",,,5.34,789 nm
"C1=C(c2ccccc2)Sc2ccccc2/C1=C/C=C/C1=CC(c2ccccc2)=[SH]c2ccccc21 [Dye 15, 2-phenyl-4-((E)-3-((E)-2-phenyl-4H-thiochromen-4-ylidene)prop-1-en-1-yl)thiochromenylium hexafluorophosphate]",789 nm,150000 M⁻¹ cm⁻¹,,
"C(=Cc1cc(-c2ccccc2)[se+]c(-c2ccccc2)c1)C=C1C=C(c2ccccc2)[Se]C(c2ccccc2)=C1.F[P-](F)(F)(F)(F)F [Dye 9, 4-(3-(2,6-diphenyl-4H-selenopyran-4-ylidene)prop-1-enyl)-2,6-diphenylselenopyrylium hexafluorophosphate]",806 nm,250000 M⁻¹ cm⁻¹,,
"C(=Cc1cc(-c2ccccc2)[se+]c(-c2ccccc2)c1)C=C1C=C(c2ccccc2)SC(c2ccccc2)=C1.F[P-](F)(F)(F)(F)F [Dye 1b, 4-(3-(2,6-diphenyl-4H-thiopyran-4-ylidene)prop-1-enyl)-2,6-diphenylselenopyrylium hexafluorophosphate]",,,5.30,784 nm
"C(=C1C=C(c2ccc[se]2)SC(c2ccc[se]2)=C1)c1cc(-c2ccc[se]2)[s+]c(-c2ccc[se]2)c1.F[P-](F)(F)(F)(F)F [Dye 8, 4-((2,6-di(selenophen-2-yl)-4H-thiopyran-4-ylidene)methyl)-2,6-di(selenophen-2-yl)thiopyrylium hexafluorophosphate]",687 nm,110000 M⁻¹ cm⁻¹,,
"C(=Cc1cc(-c2ccccc2)[se+]c(-c2ccccc2)c1)C=C1C=C(c2ccccc2)SC(c2ccccc2)=C1.F[P-](F)(F)(F)(F)F [Dye 10, 4-(3-(2,6-diphenyl-4H-thiopyran-4-ylidene)prop-1-enyl)-2,6-diphenylselenopyrylium hexafluorophosphate]",784 nm,200000 M⁻¹ cm⁻¹,,
"ClC1=C(/C=C/c2cc(-c3ccccc3)[s+]c(-c3ccccc3)c2)CCC/C1=C\C=C1C=C(c2ccccc2)SC(c2ccccc2)=C1 [Dye 20, 4-((E)-2-((E)-2-chloro-3-(2-(2,6-diphenyl-4H-thiopyran-4-ylidene)ethylidene)cyclohex-1-en-1-yl)vinyl)-2,6-diphenylthiopyrylium hexafluorophosphate]",1042 nm,100000 M⁻¹ cm⁻¹,,
"C(=C1C=C(c2cccs2)SC(c2cccs2)=C1)c1cc(-c2cccs2)[se+]c(-c2cccs2)c1.F[P-](F)(F)(F)(F)F [Dye 5, 4-((2,6-di(thiophen-2-yl)-4H-thiopyran-4-ylidene)methyl)-2,6-di(thiophen-2-yl)selenopyrylium hexafluorophosphate]",698 nm,110000 M⁻¹ cm⁻¹,,
"C(/C=C/C=C/c1cc(-c2ccc[se]2)[se+]c(-c2ccc[se]2)c1)=C1C=C(c2ccc[se]2)[Se]C(c2ccc[se]2)=C1 [Dye 19, 4-((1E,3E)-5-(2,6-di(selenophen-2-yl)-4H-selenopyran-4-ylidene)penta-1,3-dien-1-yl)-2,6-di(selenophen-2-yl)selenopyrylium]",1001 nm,,,
"C(=Cc1cc(-c2ccccc2)[se+]c(-c2ccccc2)c1)C=C1C=C(c2cccs2)SC(c2cccs2)=C1.F[P-](F)(F)(F)(F)F [Dye 2a, 4-(3-(2,6-dithiophen-2-yl-4H-thiopyran-4-ylidene)prop-1-enyl)-2,6-diphenylselenopyrylium hexafluorophosphate]",,,5.40,810 nm
"C(=C1C=C(c2ccccc2)[Se]C(c2ccccc2)=C1)c1cc(-c2cccs2)[se+]c(-c2cccs2)c1.F[P-](F)(F)(F)(F)F [Dye 3, 4-((2,6-diphenyl-4H-selenopyran-4-ylidene)methyl)-2,6-di(thiophen-2-yl)selenopyrylium hexafluorophosphate]",699 nm,150000 M⁻¹ cm⁻¹,,
"C(=C1C=C(c2cccs2)[Se]C(c2cccs2)=C1)c1cc(-c2cccs2)[se+]c(-c2cccs2)c1.F[P-](F)(F)(F)(F)F [Dye 6, 4-((2,6-di(thiophen-2-yl)-4H-selenopyran-4-ylidene)methyl)-2,6-di(thiophen-2-yl)selenopyrylium hexafluorophosphate]",724 nm,130000 M⁻¹ cm⁻¹,,
"C(/C=C/C=C/c1cc(-c2cccs2)[s+]c(-c2cccs2)c1)=C1C=C(c2cccs2)SC(c2cccs2)=C1 [Dye 18, 4-((1E,3E)-5-(2,6-di(thiophen-2-yl)-4H-thiopyran-4-ylidene)penta-1,3-dien-1-yl)-2,6-di(thiophen-2-yl)thiopyrylium]",943 nm,,,
"C1=C(/C=C/C=C2\C=C(c3ccccc3)[Se]c3ccccc32)C=C(c2ccccc2)[SH]=C1c1ccccc1 [Dye 16, 4-(3-(2,6-diphenyl-4H-thiopyran-4-ylidene)prop-1-enyl)-2-phenylselenobenzopyrylium hexafluorophosphate]",748 nm,61000 M⁻¹ cm⁻¹,,
C(=C1C=C(c2ccccc2)SC(c2ccccc2)=C1)c1cc(-c2cccs2)[s+]c(-c2cccs2)c1.F[P-](F)(F)(F)(F)F [Dye 1],653 nm,130000 M⁻¹ cm⁻¹,,
"C(=Cc1cc(-c2cccs2)[s+]c(-c2cccs2)c1)C=C1C=C(c2cccs2)SC(c2cccs2)=C1.F[P-](F)(F)(F)(F)F [Dye 3, 4-(3-(2,6-dithiophen-2-yl-4H-thiopyran-4-ylidene)prop-1-enyl)-(2,6-dithiophen-2-yl)thiopyrylium hexafluorophosphate]",,,5.45,813 nm
"C(=C1C=C(c2ccccc2)SC(c2ccccc2)=C1)c1cc(-c2ccc[se]2)[s+]c(-c2ccc[se]2)c1.F[P-](F)(F)(F)(F)F [Dye 7, 4-((2,6-diphenyl-4H-thiopyran-4-ylidene)methyl)-2,6-di(selenophen-2-yl)thiopyrylium hexafluorophosphate]",659 nm,140000 M⁻¹ cm⁻¹,,
"C(=C1C=C(c2cccs2)SC(c2cccs2)=C1)c1cc(-c2cccs2)[s+]c(-c2cccs2)c1.F[P-](F)(F)(F)(F)F [Dye 4, 4-((2,6-di(thiophen-2-yl)-4H-thiopyran-4-ylidene)methyl)-2,6-di(thiophen-2-yl)thiopyrylium hexafluorophosphate]",676 nm,120000 M⁻¹ cm⁻¹,,
"C(=Cc1cc(-c2ccccc2)[s+]c(-c2ccccc2)c1)C=C1C=C(c2cccs2)SC(c2cccs2)=C1.F[P-](F)(F)(F)(F)F [Dye 12, 4-(3-(2,6-dithiophen-2-yl-4H-thiopyran-4-ylidene)prop-1-enyl)-2,6-diphenylthiopyrylium hexafluorophosphate]",789 nm,220000 M⁻¹ cm⁻¹,,
"C(=Cc1cc(-c2ccc[se]2)[s+]c(-c2ccc[se]2)c1)C=C1C=C(c2ccc[se]2)SC(c2ccc[se]2)=C1.F[P-](F)(F)(F)(F)F [Dye 14, 4-(3-(2,6-di(selenophen-2-yl)-4H-thiopyran-4-ylidene)prop-1-en-1-yl)-2,6-di(selenophen-2-yl)thiopyrylium hexafluorophosphate]",826 nm,230000 M⁻¹ cm⁻¹,,
"C(=C1C=C(c2ccccc2)[Se]C(c2ccccc2)=C1)c1cc(-c2cccs2)[s+]c(-c2cccs2)c1.F[P-](F)(F)(F)(F)F [Dye 2, 4-((2,6-diphenyl-4H-selenopyran-4-ylidene)methyl)-2,6-di(thiophen-2-yl)thiopyrylium hexafluorophosphate]",676 nm,130000 M⁻¹ cm⁻¹,,
"C(=Cc1cc(-c2ccccc2)[se+]c(-c2ccccc2)c1)C=C1C=C(c2cccs2)SC(c2cccs2)=C1.F[P-](F)(F)(F)(F)F [Dye 11, 4-(3-(2,6-dithiophen-2-yl-4H-thiopyran-4-ylidene)prop-1-enyl)-2,6-diphenylselenopyrylium hexafluorophosphate]",810 nm,250000 M⁻¹ cm⁻¹,,

# Source: patent US20170276611A1, “CHALCOGENOPYRYLIUM DYES, COMPOSITIONS COMPRISING SAME, COMPOSITE NANOPARTICLES COMPRISING SAME, AND METHODS OF MAKING AND USING THE SAME” (The Research Foundation for The State University of New York, priority 2014, published 2017)
